US20260374773A1, “MULTI-CYCLIC IRAK AND FLT3 INHIBITING COMPOUNDS AND USES THEREOF” (CHILDREN'S HOSPITAL MEDICAL CENTER, priority 2022, published 2026)

Key:
IRAK1 = IRAK1 (Homo sapiens, UniProt P51617); test: RBC HotSpot kinase inhibition assay, IRAK1; type: biochemical; conditions: isolated kinase, 33P-ATP, 2 h
Excerpt: (§1) This assay uses the isolated kinase enzyme. This assay is very useful for determining competition of the inhibitor for ATP and/or substrates and for measuring the kinetics of enzyme inhibition. […] Unlike kinase binding assays that measure competition for ATP, the HotSpot Kinase Assay is a functional assay that measures catalytic activity; as such it measures relative functional potency regardless of the mechanism of enzyme inhibition. This assay uses the form of the various enzymes that are easiest to express, which may not necessarily be the form of the enzyme that exist in the cell. (Sometimes the carboxy terminus has been truncated to aid in expression, or, if it is a receptor kinase, the enzyme itself is isolated from the other parts of the receptor that are involved in regulating kinase activity.)
(§2) The reagent used was as follows: Base Reaction buffer; 20 mM Hepes (pH 7.5), 10 mM MgCl2, 1 mM EGTA, 0.01% Brij35, 0.02 mg/ml BSA, 0.1 mM Na3VO4, 2 mM DTT, 1% DMSO. Required cofactors were added individually to each kinase reaction.
(§3) The reaction procedure was as follows: • 1) Substrates were prepared in freshly prepared Reaction Buffer. • 2) Any required cofactors were delivered to the substrate solution above. • 3) Kinase was delivered into the substrate solution and gently mixed. • 4) Compounds were delivered in 100% DMSO into the kinase reaction mixture by Acoustic technology (Echo550; nanoliter range), followed by incubation for 20 min at room temp. • 5) ^33P-ATP was delivered into the reaction mixture to initiate the reaction. • 6) The mixture was incubated for 2 hours at room temperature. • 7) Kinase activity was detected by P81 filter-binding method.
as §1, with “Although not wishing to be limited by theory, it is believed that sometimes” for “(Sometimes”, “activity.” for “activity.)”
(§4) The reagent used was as follows: Base Reaction buffer; 20 mM Hepes (pH 7.5), 10 mM MgCl2, 1 mM EGTA, 0.01% Brij35, 0.02 mg/ml BSA, 0.1 mM Na3 VO4, 2 mM DTT, 1% DMSO.
(§5) Required cofactors were added individually to each kinase reaction.
as §3, with “33P-ATP” for “^33P-ATP”

IRAK4 = target: T1, IRAK4 (Homo sapiens, UniProt Q9NWZ3); test: RBC HotSpot kinase inhibition assay, IRAK4; type: biochemical; conditions: isolated kinase, 33P-ATP, 2 h
T1 sequence (Q9NWZ3 1-460): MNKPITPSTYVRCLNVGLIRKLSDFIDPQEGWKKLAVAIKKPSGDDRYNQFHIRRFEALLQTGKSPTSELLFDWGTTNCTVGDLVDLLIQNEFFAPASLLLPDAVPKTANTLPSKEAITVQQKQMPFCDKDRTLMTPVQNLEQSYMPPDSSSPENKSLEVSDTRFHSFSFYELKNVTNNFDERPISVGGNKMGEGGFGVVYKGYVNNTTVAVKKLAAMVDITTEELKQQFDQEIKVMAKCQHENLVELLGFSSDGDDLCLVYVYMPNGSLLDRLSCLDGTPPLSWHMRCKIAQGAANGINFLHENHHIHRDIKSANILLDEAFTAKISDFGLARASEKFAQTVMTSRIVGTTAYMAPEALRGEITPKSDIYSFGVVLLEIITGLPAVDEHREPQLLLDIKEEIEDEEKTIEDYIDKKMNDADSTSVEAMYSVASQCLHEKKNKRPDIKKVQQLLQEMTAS
Excerpt: as §1, §2, §3
as §1, with “Although not wishing to be limited by theory, it is believed that sometimes” for “(Sometimes”, “activity.” for “activity.)”
as §4, §5
as §3, with “33P-ATP” for “^33P-ATP”

FLT3 = target: T2, FLT3 (Homo sapiens, UniProt P36888); test: RBC HotSpot kinase inhibition assay, FLT3; type: biochemical; conditions: isolated kinase, 33P-ATP, 2 h
T2 sequence (P36888 27-993): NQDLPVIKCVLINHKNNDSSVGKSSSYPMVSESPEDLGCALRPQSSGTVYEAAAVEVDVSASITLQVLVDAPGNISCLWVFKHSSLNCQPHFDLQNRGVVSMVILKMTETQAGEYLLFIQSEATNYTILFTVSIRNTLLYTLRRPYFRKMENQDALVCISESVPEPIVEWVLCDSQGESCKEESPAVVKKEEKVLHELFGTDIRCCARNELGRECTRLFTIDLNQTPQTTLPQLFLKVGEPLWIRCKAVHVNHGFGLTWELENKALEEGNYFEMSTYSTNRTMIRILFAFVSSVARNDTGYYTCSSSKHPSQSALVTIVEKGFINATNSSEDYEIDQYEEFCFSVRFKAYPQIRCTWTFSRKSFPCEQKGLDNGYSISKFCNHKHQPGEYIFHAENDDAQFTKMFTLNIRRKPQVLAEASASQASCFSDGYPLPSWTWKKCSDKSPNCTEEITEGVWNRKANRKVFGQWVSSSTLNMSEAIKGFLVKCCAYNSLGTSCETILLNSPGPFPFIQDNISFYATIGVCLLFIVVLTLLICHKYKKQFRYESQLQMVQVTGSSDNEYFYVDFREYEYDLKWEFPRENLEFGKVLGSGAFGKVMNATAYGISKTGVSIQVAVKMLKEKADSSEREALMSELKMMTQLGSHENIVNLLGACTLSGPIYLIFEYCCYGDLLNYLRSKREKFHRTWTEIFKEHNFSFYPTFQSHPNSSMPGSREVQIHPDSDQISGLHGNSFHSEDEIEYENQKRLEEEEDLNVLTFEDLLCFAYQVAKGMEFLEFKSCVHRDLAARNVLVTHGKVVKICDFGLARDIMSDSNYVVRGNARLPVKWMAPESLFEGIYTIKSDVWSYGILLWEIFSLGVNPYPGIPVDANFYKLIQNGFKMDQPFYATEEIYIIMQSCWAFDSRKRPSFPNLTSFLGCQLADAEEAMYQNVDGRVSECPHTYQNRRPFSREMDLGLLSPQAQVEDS
Excerpt: as §1, §2, §3
as §1, with “Although not wishing to be limited by theory, it is believed that sometimes” for “(Sometimes”, “activity.” for “activity.)”
as §4, §5
as §3, with “33P-ATP” for “^33P-ATP”

MOLM14 D835Y cells = test: MOLM14 D835Y cell viability (Cell Titer Glo); type: cell-based; conditions: Homo sapiens
Description: Both cell lines have activated FLT3 receptors, each of which carry additional resistance mutations in the kinase domain (D835Y and F691L, respectively).
(§6) MOLM14 D835Y and MOLM14 F691L cells were grown in RPMI-1640 media supplemented with 20% fetal bovine serum (FBS). For viability/cytotoxicity assessments, cells were seeded into 1536-well white polystyrene tissue culture-treated Greiner plates using a Multidrop Combi dispenser (ThermoFisher), in final volume 5 μL of growth media per well, at a density of 1000 cells per well. After cell addition, 23 nL of test compound were transferred into individual wells (22 doses tested for each test compound, with a 1:2 dilution series starting at 10 μM) via a 1536 pin-tool. Bortezomib (final concentration 2.3 μM) was used as a positive control for cell cytotoxicity. Plates were incubated for 48 hours at standard incubator conditions covered by a stainless steel gasketed lid to prevent evaporation. 48 hours post compound addition, 3 μL of Cell Titer Glo (Promega) were added to each well and plates were incubated at room temperature for 15 minutes with the stainless-steel lid in place. Luminescence readings were taken using a Viewlux imager (PerkinElmer) with a 2 second exposure time per plate.
This cell line has activated FLT3 receptors, which carries an additional resistance mutation in the kinase domain at D835Y.
as §6, with “D835Y” for “D835Y and MOLM14 F691L”, “mL” for “μL”, “mM)” for “μM)”

Sequence of IRAK1 (P51617 whole entry, the tested form may be a part): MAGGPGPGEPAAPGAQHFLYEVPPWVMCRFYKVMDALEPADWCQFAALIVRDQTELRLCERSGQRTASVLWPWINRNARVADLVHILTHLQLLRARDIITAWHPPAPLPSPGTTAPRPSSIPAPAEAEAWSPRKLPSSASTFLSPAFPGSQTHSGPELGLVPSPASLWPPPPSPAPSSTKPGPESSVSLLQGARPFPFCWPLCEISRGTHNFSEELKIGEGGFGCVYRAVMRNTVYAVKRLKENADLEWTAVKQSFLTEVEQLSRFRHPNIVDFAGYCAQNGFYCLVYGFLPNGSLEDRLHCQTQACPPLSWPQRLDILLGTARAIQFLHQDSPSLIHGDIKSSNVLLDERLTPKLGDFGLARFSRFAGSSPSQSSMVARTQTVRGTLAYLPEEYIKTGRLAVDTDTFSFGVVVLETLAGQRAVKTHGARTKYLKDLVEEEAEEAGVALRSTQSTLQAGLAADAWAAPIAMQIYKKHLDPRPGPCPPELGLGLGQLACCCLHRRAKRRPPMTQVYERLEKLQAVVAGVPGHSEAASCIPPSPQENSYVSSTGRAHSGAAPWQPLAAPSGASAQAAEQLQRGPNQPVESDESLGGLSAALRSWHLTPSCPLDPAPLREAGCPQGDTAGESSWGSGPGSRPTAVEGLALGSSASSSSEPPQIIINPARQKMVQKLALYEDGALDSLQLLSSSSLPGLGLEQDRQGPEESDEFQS

Compound	IC50 (IRAK1; Table 11) [nM]	IC50 (IRAK4; Table 11) [nM]	IC50 (FLT3; Table 11) [nM]	IC50 (MOLM14 D835Y cells; MOLM-14, Table 16, 48 h) [nM]	IC50 (IRAK1; Table 17) [nM]	IC50 (IRAK4; Table 17) [nM]	IC50 (FLT3; Table 17) [nM]	IC50 (MOLM14 D835Y cells; MOLM-14, Table 22, 48 h) [nM]
COc1cn2ncc(-c3nc(N[C@H]4CNC[C@@H]4F)ccc3F)c2nc1C1CC1 [Compound 1, 6-(5-cyclopropyl-6-methoxypyrazolo[1,5-a]pyrimidin-3-yl)-5-fluoro-N-((3S,4S)-4-fluoropyrrolidin-3-yl)pyridin-2-amine]	0.9	< 0.5	< 0.5	9	–	–	–	–
COc1cn2ncc(-c3nc(N[C@@H]4CCCNC4)c(C#N)cc3F)c2nc1C1CC1 [Compound 8, (R)-6-(5-cyclopropyl-6-methoxypyrazolo[1,5-a]pyrimidin-3-yl)-5-fluoro-2-(piperidin-3-ylamino)nicotinonitrile]	< 0.5	< 0.5	< 0.5	–	–	–	–	–
COc1cn2ncc(-c3cncc(N[C@H]4CNC[C@@H]4F)n3)c2nc1C1CC1 [Compound 10a, 6-(5-cyclopropyl-6-methoxypyrazolo[1,5-a]pyrimidin-3-yl)-N-((3S,4S)-4-fluoropyrrolidin-3-yl)pyrazin-2-amine]	–	–	–	–	6	0.7	< 0.5	81
F[C@H]1CNC[C@@H]1Nc1cccc(-c2cnn3cc(Cl)cnc23)n1 [Compound 14, 6-(6-chloropyrazolo[1,5-a]pyrimidin-3-yl)-N-((3S,4S)-4-fluoropyrrolidin-3-yl)pyridin-2-amine]	6220	491	32	–	–	–	–	–
FC(F)COc1cnc2c(-c3cccc(N[C@H]4CNC[C@@H]4F)n3)cnn2c1 [Compound 16, 6-(6-(2,2-difluoroethoxy)pyrazolo[1,5-a]pyrimidin-3-yl)-N-((3S,4S)-4-fluoropyrrolidin-3-yl)pyridin-2-amine]	4300	61	4	–	–	–	–	–
CC(C)Oc1cnc2c(-c3cccc(N[C@H]4CNC[C@@H]4F)n3)cnn2c1 [Compound 17, N-((3S,4S)-4-fluoropyrrolidin-3-yl)-6-(6-isopropoxypyrazolo[1,5-a]pyrimidin-3-yl)pyridin-2-amine]	3510	295	19	–	–	–	–	–
COc1cn2ncc(-c3nc(N[C@@H]4CCCNC4)c(F)cc3F)c2nc1C1CC1 [Compound 23, (R)-6-(5-cyclopropyl-6-methoxypyrazolo[1,5-a]pyrimidin-3-yl)-3,5-difluoro-N-(piperidin-3-yl)pyridin-2-amine]	< 0.5	< 0.5	< 0.5	5	–	–	–	–

Other lines, results leading:

IC50 (IRAK1; Table 11) [nM]	IC50 (IRAK4; Table 11) [nM]	IC50 (FLT3; Table 11) [nM]	IC50 (MOLM14 D835Y cells; MOLM-14, Table 16, 48 h) [nM]	IC50 (IRAK1; Table 17) [nM]	IC50 (IRAK4; Table 17) [nM]	IC50 (FLT3; Table 17) [nM]	IC50 (MOLM14 D835Y cells; MOLM-14, Table 22, 48 h) [nM]	Compound
–	–	–	–	162	9	2	257	COc1cn2ncc(-c3ccnc(N[C@H]4CNC[C@@H]4F)n3)c2nc1C(C)(C)O [Compound 1a, 2-(3-(2-(((3S,4S)-4-fluoropyrrolidin-3-yl)amino)pyrimidin-4-yl)-6-methoxypyrazolo[1,5-a]pyrimidin-5-yl)propan-2-ol]
4	0.9	< 0.5	36	–	–	–	–	COc1cn2ncc(-c3ccc(F)c(N[C@H]4CNC[C@@H]4F)n3)c2nc1C1CC1 [Compound 4, 6-(5-cyclopropyl-6-methoxypyrazolo[1,5-a]pyrimidin-3-yl)-3-fluoro-N-((3S,4S)-4-fluoropyrrolidin-3-yl)pyridin-2-amine]
1290	267	15	–	–	–	–	–	F[C@H]1CNC[C@@H]1Nc1cccc(-c2cnn3cc(C4CC4)cnc23)n1 [Compound 15, 6-(6-cyclopropylpyrazolo[1,5-a]pyrimidin-3-yl)-N-((3S,4S)-4-fluoropyrrolidin-3-yl)pyridin-2-amine]
2320	72	18	–	–	–	–	–	COc1cnc2c(-c3cccc(N[C@H]4CNC[C@@H]4F)n3)cnn2c1 [Compound 18, N-((3S,4S)-4-fluoropyrrolidin-3-yl)-6-(6-methoxypyrazolo[1,5-a]pyrimidin-3-yl)pyridin-2-amine]
